Measured values published in US10815210B2, “Benzocyclobutane derivatives useful as dual SGLT1 / SGLT2 modulators” (Janssen Pharmaceutica NV, priority 2016, dated 2020).

Assays:
[1] = biological target: T1, human SGLT1 (Homo sapiens, UniProt P13866); assay: SGLT1 assay: Na-dependent 14C-AMG uptake in CHO-K1 cells stably expressing human SGLT1; type: cell-based; settings: for IC50: 500 μM AMG, 2 hours at 37° C.
T1 construct: expressed in transfected cells; host or cells: CHO-K1
T1 sequence (P13866 1-664): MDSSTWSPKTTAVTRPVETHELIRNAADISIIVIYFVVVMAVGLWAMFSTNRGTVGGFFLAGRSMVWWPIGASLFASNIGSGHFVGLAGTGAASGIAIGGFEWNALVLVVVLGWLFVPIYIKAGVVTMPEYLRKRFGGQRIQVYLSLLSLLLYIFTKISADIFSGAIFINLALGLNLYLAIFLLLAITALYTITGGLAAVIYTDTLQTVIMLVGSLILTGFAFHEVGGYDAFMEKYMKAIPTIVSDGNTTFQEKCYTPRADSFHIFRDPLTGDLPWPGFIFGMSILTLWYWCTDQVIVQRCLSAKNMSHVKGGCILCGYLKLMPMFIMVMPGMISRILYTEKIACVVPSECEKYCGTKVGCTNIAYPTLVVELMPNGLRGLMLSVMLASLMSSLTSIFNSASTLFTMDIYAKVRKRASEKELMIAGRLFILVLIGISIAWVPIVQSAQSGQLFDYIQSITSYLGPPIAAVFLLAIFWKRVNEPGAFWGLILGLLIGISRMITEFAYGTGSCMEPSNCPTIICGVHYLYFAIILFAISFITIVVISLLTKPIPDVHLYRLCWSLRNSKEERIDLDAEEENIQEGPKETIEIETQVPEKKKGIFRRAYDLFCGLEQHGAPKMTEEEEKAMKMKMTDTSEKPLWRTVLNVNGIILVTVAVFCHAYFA
Procedure: (§1) SGLT1 and SGLT2 were cloned in form of cDNA from human small intestine (Genbank M24847), and from human kidney (Genbank M95549), respectively. Subsequently, each full cDNA was subcloned into pcDNA with each construct's integrity verified through follow-on sequencing. To generate CHO-K1 cells that stably express human SGLT1 or human SGLT2, CHO-K1 cells were transfected using DMRIE-C reagent (Life Technologies, Gaithersburg, Md.). Transfected cells were then selected in the presence of 500 μg/ml of the Geneticin (G418 Cellgro Catalog No. 30234-CI)
(§2) Individual clones were then characterized using the following cell-based assay for sodium-dependent glucose transport:
(§3) Inhibition of SGLT1 and SGLT2 activity was assessed in CHO K1 cells stably expressing either human SGLT1 or SGLT2, using the SGLT specific glucose analog methyl-glucopyranoside (Sigma Catalog No. M-9376). Cells were plated (45,000 cells/well) in white wall 96-well plates (COSTAR, Cat#3903) for 24 hours in growth medium, then a final concentration of 10 mM Na-Butyrate (ALDRICH Cat#30341-0) was added. The cells were incubated for 24 hours. On the day of the assay, cells were rinsed and treated with test compounds (at concentrations of 0.001 μM to 10 μM) in assay buffer (50 mM HEPES, 20 mM Tris base, 5 mM KCl, 1 mM MgCl2, 1 mM CaCl2 and 137 mM NaCl, pH 7.4) for 10 minutes. Cells were then incubated with ^14C-a-methyl-d-glucopyranoside (AMG, Amersham Catalog No. CFB 76), using 0.07 μCi per well in 500 μM AMG final concentration. The cells were incubated for 2 hours at 37° C. with 5% CO2 and washed two times with ice-cold Phosphate Buffer Solution (Cellgro Catalog No. 21030-CV). The cells were then solubilized by adding 60 μl of MICROSCINT™20 and the Na-dependent ^14C-AMG uptake was quantified by measuring radioactivity. Plates were counted in a TopCount (Packard, Meriden, Conn.)

[2] = biological target: T2, human SGLT2 (Homo sapiens, UniProt P31639); assay: SGLT2 assay: Na-dependent 14C-AMG uptake in CHO-K1 cells stably expressing human SGLT2; type: cell-based; settings: for IC50: 500 μM AMG, 2 hours at 37° C.
T2 construct: expressed in transfected cells; host or cells: CHO-K1
T2 sequence (P31639 1-672): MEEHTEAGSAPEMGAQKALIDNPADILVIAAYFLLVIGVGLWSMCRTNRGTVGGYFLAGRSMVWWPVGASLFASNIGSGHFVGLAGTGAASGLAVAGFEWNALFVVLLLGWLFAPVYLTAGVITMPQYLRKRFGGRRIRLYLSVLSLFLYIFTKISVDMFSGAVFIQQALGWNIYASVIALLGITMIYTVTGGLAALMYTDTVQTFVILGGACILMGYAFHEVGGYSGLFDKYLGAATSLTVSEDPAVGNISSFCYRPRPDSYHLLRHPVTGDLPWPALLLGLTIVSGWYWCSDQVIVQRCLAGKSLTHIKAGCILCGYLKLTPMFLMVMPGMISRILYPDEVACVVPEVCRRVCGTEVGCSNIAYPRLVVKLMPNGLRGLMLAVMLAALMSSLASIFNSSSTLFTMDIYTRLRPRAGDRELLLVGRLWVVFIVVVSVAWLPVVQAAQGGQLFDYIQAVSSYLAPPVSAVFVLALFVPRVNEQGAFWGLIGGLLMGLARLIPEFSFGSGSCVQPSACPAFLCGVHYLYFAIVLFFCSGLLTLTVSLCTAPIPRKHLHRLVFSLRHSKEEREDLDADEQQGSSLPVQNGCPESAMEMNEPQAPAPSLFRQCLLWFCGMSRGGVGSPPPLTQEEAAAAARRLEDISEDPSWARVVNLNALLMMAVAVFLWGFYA
Procedure: as §1, §2, §3

For `COc1cc(Cl)c(Cc2ccc3c(c2)CC3)cc1[C@@H]1O[C@H](CO)[C@@H](O)[C@H](O)[C@H]1O` [Compound 9], the IC50 [1] was 53 nM and the IC50 [2] was 1 nM.

`COc1cc(O)c([C@@H]2O[C@H](CO)[C@@H](O)[C@H](O)[C@H]2O)cc1Cc1ccc2c(c1)CC2` [Compound 10, (2S,3R,4R,5S,6R)-2-(5-((1,2-dihydrocyclobutabenzen-4-yl)methyl)-2-hydroxy-4-methoxyphenyl)-6-(hydroxymethyl)-tetrahydro-2H-pyran-3,4,5-triol] showed an IC50 [1] of 5 nM and an IC50 [2] of 1 nM.

With `COc1cc(OC)c([C@@H]2O[C@H](CO)[C@@H](O)[C@H](O)[C@H]2O)cc1Cc1ccc2c(c1)CC2` [Compound 11, (2S,3R,4R,5S,6R)-2-(5-((1,2-dihydrocyclobutabenzen-4-yl)methyl)-2,4-dimethoxyphenyl)-6-(hydroxymethyl)-tetrahydro-2H-pyran-3,4,5-triol] the IC50 [1] was 58 nM and the IC50 [2] was 1 nM.

`CCc1cc(O)c([C@@H]2O[C@H](CO)[C@@H](O)[C@H](O)[C@H]2O)cc1Cc1ccc2c(c1)CC2` [Compound 12] showed an IC50 [1] of 3 nM and an IC50 [2] of 2 nM.

`CCc1cc(OC)c([C@@H]2O[C@H](CO)[C@@H](O)[C@H](O)[C@H]2O)cc1Cc1ccc2c(c1)CC2` [Compound 13, (2S,3R,4R,5S,6R)-2-(5-((1,2-dihydrocyclobutabenzen-4-yl)methyl)-4-ethyl-2-methoxyphenyl)-6-(hydroxymethyl)-tetrahydro-2H-pyran-3,4,5-triol] was tested, and the IC50 [1] was 32 nM and the IC50 [2] was 1 nM.

`OC[C@H]1O[C@@H](c2cc(Cc3ccc4c(c3)CC4)c(C3CC3)cc2O)[C@H](O)[C@@H](O)[C@@H]1O` [Compound 14, (2S,3R,4R,5S,6R)-2-(5-(bicyclo[4.2.0]octa-1(6),2,4-trien-3-ylmethyl)-4-cyclopropyl-2-hydroxyphenyl)-6-(hydroxymethyl)oxane-3,4,5-triol] was tested, and the IC50 [1] was 3 nM and the IC50 [2] was 6 nM.

`COc1cc(C2CC2)c(Cc2ccc3c(c2)CC3)cc1[C@@H]1O[C@H](CO)[C@@H](O)[C@H](O)[C@H]1O` [Compound 15, (2S,3R,4R,5S,6R)-2-(5-(bicyclo[4.2.0]octa-1(6),2,4-trien-3-ylmethyl)-4-cyclopropyl-2-methoxyphenyl)-6-(hydroxymethyl)oxane-3,4,5-triol] showed an inhibition at 0.3 µM [1] of 67% and an inhibition at 0.03 µM [2] of 31%.

Work on `N#Cc1ccc([C@@H]2O[C@H](CO)[C@@H](O)[C@H](O)[C@H]2O)cc1Cc1ccc2c(c1)CC2` [Compound 16, 2-((1,2-dihydrocyclobutabenzen-4-yl)methyl)-4-((2S,3R,4R,5S,6R)-3,4,5-trihydroxy-6-(hydroxymethyl)-tetrahydro-2H-pyran-2-yl)benzonitrile] yielded an inhibition at 0.3 µM [1] of 0% and an inhibition at 0.03 µM [2] of 43%.

`N#Cc1cc(O)c([C@@H]2O[C@H](CO)[C@@H](O)[C@H](O)[C@H]2O)cc1Cc1ccc2c(c1)CC2` [Compound 17, 2-((1,2-dihydrocyclobutabenzen-4-yl)methyl)-5-hydroxy-4-((2S,3R,4R,5S,6R)-3,4,5-trihydroxy-6-(hydroxymethyl)-tetrahydro-2H-pyran-2-yl)benzonitrile] was tested, and the IC50 [1] was 192 nM and the IC50 [2] was 1 nM.

In the case of `COc1cc(C#N)c(Cc2ccc3c(c2)CC3)cc1[C@@H]1O[C@H](CO)[C@@H](O)[C@H](O)[C@H]1O` [Compound 18, 2-((1,2-dihydrocyclobutabenzen-4-yl)methyl)-5-methoxy-4-((2S,3R,4R,5S,6R)-3,4,8-trihydroxy-6-(hydroxymethyl)-tetrahydro-2H-pyran-2-yl)benzonitrile], the inhibition at 0.3 µM [1] is reported as 25% and the inhibition at 0.03 µM [2] is reported as 74%.

Molecule `OC[C@H]1O[C@@H](c2cc(Cc3ccc4c(c3)CC4)c(F)cc2O)[C@H](O)[C@@H](O)[C@@H]1O` [Compound 19, (2S,3R,4R,5S,6R)-2-(5-(bicyclo[4.2.0]octa-1(6),2,4-trien-3-ylmethyl)-4-fluoro-2-hydroxyphenyl)-6-(hydroxymethyl)tetrahydro-2H-pyran-3,4,5-triol] has an inhibition at 0.3 µM [1] of 62% and an inhibition at 0.03 µM [2] of 38%.

Work on `COc1cc(F)c(Cc2ccc3c(c2)CC3)cc1[C@@H]1O[C@H](CO)[C@@H](O)[C@H](O)[C@H]1O` [Compound 20, (2S,3R,4R,5S,6R)-2-(5-((1,2-dihydrocyclobutabenzen-4-yl)methyl)-4-fluoro-2-methoxyphenyl)-6-(hydroxymethyl)-tetrahydro-2H-pyran-3,4,5-triol] yielded an inhibition at 0.3 µM [1] of 24% and an inhibition at 0.03 µM [2] of 77%.

In the case of `CN(C)c1ccc([C@@H]2O[C@H](CO)[C@@H](O)[C@H](O)[C@H]2O)cc1Cc1ccc2c(c1)CC2` [Compound 21, (2S,3R,4R,5S,6R)-2-(3-(bicyclo[4.2.0]octa-1(6),2,4-trien-3-ylmethyl)-4-(dimethylamino)phenyl)-6-(hydroxymethyl)oxane-3,4,8-triol], the inhibition at 0.3 µM [1] is reported as 67% and the inhibition at 0.03 µM [2] is reported as 35%.

Work on `CN(C)c1cc(O)c([C@@H]2O[C@H](CO)[C@@H](O)[C@H](O)[C@H]2O)cc1Cc1ccc2c(c1)CC2` [Compound 22, (2S,3R,4R,5S,6R)-2-(5-((1,2-dihydrocyclobutabenzen-4-yl)methyl)-4-(dimethylamino)-2-hydroxyphenyl)-6-(hydroxymethyl)-tetrahydro-2H-pyran-3,4,5-triol] yielded an IC50 [1] of 12 nM and an IC50 [2] of 3 nM.

In the case of `COc1cc(N(C)C)c(Cc2ccc3c(c2)CC3)cc1[C@@H]1O[C@H](CO)[C@@H](O)[C@H](O)[C@H]1O` [Compound 23, (2S,3R,4R,5S,6R)-2-(5-((1,2-dihydrocyclobutabenzen-4-yl)methyl)-4-(dimethylamino)-2-methoxyphenyl)-6-(hydroxymethyl)-tetrahydro-2H-pyran-3,4,5-triol], the inhibition at 0.3 µM [1] is reported as 24% and the inhibition at 0.03 µM [2] is reported as 39%.

Work on `OC[C@H]1O[C@@H](c2cccc(Cc3ccc4c(c3)CC4)c2)[C@H](O)[C@@H](O)[C@@H]1O` [Compound 24, (2S,3R,4R,5S,6R)-2-(3-((1,2-dihydrocyclobutabenzen-4-yl)methyl)phenyl)-6-(hydroxymethyl)-tetrahydro-2H-pyran-3,4,5-triol] yielded an inhibition at 0.3 µM [1] of 5% and an inhibition at 0.03 µM [2] of 23%.

`OC[C@H]1O[C@@H](c2cc(Cc3ccc4c(c3)CC4)ccc2O)[C@H](O)[C@@H](O)[C@@H]1O` [Compound 25, (2S,3R,4R,5S,6R)-2-(5-{bicyclo[4.2.0]octa-1(6),2,4-trien-3-ylmethyl}-2-hydroxyphenyl)-6-(hydroxymethyl)oxane-3,4,5-triol] was tested, and the inhibition at 0.3 µM [1] was 36% and the inhibition at 0.03 µM [2] was 71%.

In the case of `COc1ccc(Cc2ccc3c(c2)CC3)cc1[C@@H]1O[C@H](CO)[C@@H](O)[C@H](O)[C@H]1O` [Compound 26, (2S,3R,4R,5S,6R)-2-(5-(bicyclo[4.2.0]octa-1(6),2,4-trien-3-ylmethyl)-2-methoxyphenyl)-6-(hydroxymethyl)oxane-3,4,5-triol], the inhibition at 0.3 µM [1] is reported as 5% and the inhibition at 0.03 µM [2] is reported as 58%.
